Data published in PMC11525196 (Nature, 2024).
Where a chain is given by its changes, count along the chain named. Like-named read-outs stand apart in the source and are kept apart here. Values belong to the molecule of their own block, whether it stands above or below them.

Legend:
[1] = target: T1, LYCHOS (GPR155) (Homo sapiens, UniProt Q7Z3F1, N145A); assay: SPR steady-state affinity; type: binding
T1 sequence (Q7Z3F1 1-870 N145A): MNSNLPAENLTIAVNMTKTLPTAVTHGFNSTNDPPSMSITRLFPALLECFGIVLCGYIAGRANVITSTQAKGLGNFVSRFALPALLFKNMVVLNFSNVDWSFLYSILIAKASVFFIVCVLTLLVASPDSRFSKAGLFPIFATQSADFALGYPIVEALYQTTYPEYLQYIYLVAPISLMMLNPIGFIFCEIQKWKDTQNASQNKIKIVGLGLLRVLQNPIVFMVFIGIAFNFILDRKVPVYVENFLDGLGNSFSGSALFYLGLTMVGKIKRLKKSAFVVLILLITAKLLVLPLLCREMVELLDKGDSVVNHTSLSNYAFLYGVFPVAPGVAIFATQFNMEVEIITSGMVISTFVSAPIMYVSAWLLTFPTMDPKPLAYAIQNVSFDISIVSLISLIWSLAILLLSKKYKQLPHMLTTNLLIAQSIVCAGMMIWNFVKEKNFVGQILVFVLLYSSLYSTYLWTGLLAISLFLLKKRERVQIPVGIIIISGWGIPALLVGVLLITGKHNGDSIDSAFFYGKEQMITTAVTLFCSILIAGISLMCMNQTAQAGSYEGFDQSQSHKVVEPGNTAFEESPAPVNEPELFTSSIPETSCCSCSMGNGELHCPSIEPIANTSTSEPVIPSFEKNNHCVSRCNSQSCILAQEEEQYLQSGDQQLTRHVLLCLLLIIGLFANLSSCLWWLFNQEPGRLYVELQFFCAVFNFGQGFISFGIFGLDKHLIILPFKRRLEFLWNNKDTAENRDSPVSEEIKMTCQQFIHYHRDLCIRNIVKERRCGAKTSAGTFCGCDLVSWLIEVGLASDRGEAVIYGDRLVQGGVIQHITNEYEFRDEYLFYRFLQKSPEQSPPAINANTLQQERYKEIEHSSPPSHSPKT

[2] = target: T2, LYCHOS (GPR155) (Homo sapiens, UniProt Q7Z3F1); assay: SPR steady-state affinity; type: binding
T2 sequence (Q7Z3F1 1-870): T1 sequence (Q7Z3F1 1-870 N145A) with A145N

[3] = target: T3, LYCHOS (GPR155) (Homo sapiens, UniProt Q7Z3F1, A148W); assay: SPR steady-state affinity; type: binding
T3 sequence (Q7Z3F1 1-870 A148W): T1 sequence (Q7Z3F1 1-870 N145A) with A145N, A148W

[4] = target: T4, LYCHOS (GPR155) (Homo sapiens, UniProt Q7Z3F1, L177W); assay: SPR steady-state affinity; type: binding
T4 sequence (Q7Z3F1 1-870 L177W): T1 sequence (Q7Z3F1 1-870 N145A) with A145N, L177W

[5] = target: the molecule itself; assay: cryo-EM structure
[6] = target: the molecule itself; assay: cryo-EM structure; remark: listed apart in the source
[7] = target: T5, LYCHOS(N145A)-Flag-NLuc (human, UniProt Q7Z3F1 1-870, N145A); assay: FRET or BRET
T5 sequence: T1 sequence (Q7Z3F1 1-870 N145A)

[8] = target: T6, LYCHOS(F352A/W678R/N145A)-Flag-NLuc (human, UniProt Q7Z3F1 1-870, F352A | W678R | N145A); assay: FRET or BRET
T6 sequence: T1 sequence (Q7Z3F1 1-870 N145A) with F352A, W678R

B1: LYCHOS (GPR155), wild type, C-terminal Flag tag, expressed in Sf9 cells (natural protein, human)
chain: T1 sequence (Q7Z3F1 1-870 N145A) with A145N
- stoichiometry N [5]: 2

B2: LYCHOS (GPR155), wild type, C-terminal Flag tag, expressed in Expi293F cells (natural protein, human)
chain: T1 sequence (Q7Z3F1 1-870 N145A) with A145N
- stoichiometry N [6]: 2

Next, values leading:

- Kd [1]: 5.49 mM
- Kd [2]: 1.62 mM
- Kd [3]: 3.38 mM
- Kd [4]: 3.93 mM
Molecule: O=C(O)Cc1c[nH]c2ccccc12 [IAA, Indole-3-acetic acid]

- BRET50 [7]: 0.23 ± 0.06
- BRET50 [8]: 0.03 ± 0.01
B3: HA-cpmCitrine-NPRL2 (natural protein, UniProt Q8WTW4 1-380, looked up)
chain: MGSGCRIECIFFSEFHPTLGPKITYQVPEDFISRELFDTVQVYIITKPELQNKLITVTAMEKKLIGCPVCIEHKKYSRNALLFNLGFVCDAQAKTCALEPIVKKLAGYLTTLELESSFVSMEESKQKLVPIMTILLEELNASGRCTLPIDESNTIHLKVIEQRPDPPVAQEYDVPVFTKDKEDFFNSQWDLTTQQILPYIDGFRHIQKISAEADVELNLVRIAIQNLLYYGVVTLVSILQYSNVYCPTPKVQDLVDDKSLQEACLSYVTKQGHKRASLRDVFQLYCSLSPGTTVRDLIGRHPQQLQHVDERKLIQFGLMKNLIRRLQKYPVRVTREEQSHPARLYTGCHSYDEICCKTGMSYHELDERLENDPNIIICWK
